{
  "source": "patent US8999404B2",
  "about": "“Phaleria macrocarpa extract, extraction process and its use as cholesteryl ester transferase protein (CETP) inhibitor” (Pt. Dexa Medica, priority 2011, dated 2015)",
  "key": {"CETP gene expression": {"test_system": "CETP gene expression", "test": "Combination effect of double unsaturated fatty acid and DLBS1449 on CETP gene expression", "assay_type": "cell-based, human", "conditions": "HepG2, 30 μM fatty acid alone, 24 hours, FIG. 8", "description": "HepG2 cells were cultured at 6-well plate until 60% of cell density was reached. Change of medium was then performed, using serum-free medium and incubated for 24 hours. Those cells were then treated with 4 different treatments which were 30 μM of arachidonic acid, 30 μM of linoleic acid, combination of arachidonic acid with 75 μg/ml of DLBS1449 and combination of linoleic acid with 75 μg/ml of DLBS1449. These treatments were performed for 24 hours. Total RNA of HepG2 cells treated with DLBS1449 were isolated using Trizol solution according to the procedure available from the solution. Total RNA were then measured using NanoDrop machine and visualized using electrophoresis method. Further, RNA with good quality will be used to synthesize cDNA through RT-PCR process using PCR Thermocycler machine in a certain condition that has been optimized."}, "[1]": {"conditions": "clinical trials, patients consuming the drug; cited from earlier work"}},
  "note": "Entries after “also recorded” stand apart in the source; their conditions may differ.",
  "data": [
    {"compound": "CCCCC/C=C\\C/C=C\\C/C=C\\C/C=C\\CCCC(=O)O", "note": "[arachidonic acid]", "values": [
      {"measurement": "CETP gene expression", "setting": "CETP gene expression", "value": "decrease the CETP gene expression"}
    ]},
    {"compound": "CCCCC/C=C\\C/C=C\\CCCCCCCC(=O)O", "note": "[linoleic acid]", "values": [
      {"measurement": "CETP gene expression", "setting": "CETP gene expression", "value": "greater decrease"}
    ]},
    {"compound": "CCOC(=O)N1c2ccc(C(F)(F)F)cc2[C@@H](N(Cc2cc(C(F)(F)F)cc(C(F)(F)F)c2)C(=O)OC)C[C@H]1CC", "note": "[torcetrapib]", "values": [
      {"measurement": "patients' blood pressure", "setting": "[1]", "value": "increase of blood pressure; also recorded: increase in patients' blood pressure"}
    ]}
  ]
}
